# Measurements: patent US11584747B2, “Substituted pyridopyrimidinonyl compounds useful as T cell activators” (BRISTOL-MYERS SQUIBB COMPANY, priority 2019, dated 2023)
# Like-named read-outs stand apart in the source and are kept apart here.
# Columns and labels:
# [1] = biological target: T1, human DGKα (Homo sapiens (Human), UniProt P23743); test: DGKα ADPGLO assay (detergent/lipid micelle substrate); assay type: biochemical; settings: truncated DGK alpha; read-out: DGK alpha ADPGLO (Truncated) IC50
# Method: DGK Alpha ADPGLO (Truncated) IC50 (uM)
# The detergent/lipid micelle was prepared by combining 15 g phosphatidylserine (Avanti 840035P) and 1 g diacylglycerol (8008110) and dissolving into 150 mL chloroform in a 2 L round bottom flask. Chloroform was removed under high vacuum by rotary evaporation. […] The lipid/detergent solution was split into 5 mL aliquots and stored at −80° C.
# [2] = tested on: whole blood (pERK); test: pERK Whole Blood assay (Table A; no whole-blood pERK method described); assay type: cell-based; settings: normalized
# [3] = biological target: human DGKζ (Homo sapiens (Human), UniProt Q13574); test: DGKζ LIPGLO assay (extruded liposome substrate, ADP-Glo luminescence); assay type: biochemical; settings: liposome assay; read-out: DGK zeta LIPGLO IC50
# [4] = tested on: human venous whole blood (IFN-γ); test: Human whole blood IFN-γ assay; assay type: cell-based; settings: whole blood, normalized to 3 μM reference compound as 100% activation, read-out: IFN-γ Whole Blood Normalized EC50
# Method: Human venous whole blood (22.5 μL per well), obtained from healthy donors, was pre-treated with compounds for one hour at 37° C. in a humidified 95% air/5% CO2 incubator. The blood was stimulated with 2.5 μL anti-human CD3 and anti-CD28 mAb at a final concentration of 1 μg/mL each for 24 hours at 37° C. IFN-γ in the supernatants was measured using AlphLISA kit (Cat #AL217).
# [5] = biological target: T1, human DGKα; test: DGKα LIPGLO assay (extruded liposome substrate, ADP-Glo luminescence); assay type: biochemical; settings: liposome assay; read-out: DGK alpha LIPGLO IC50
# Sequence of human DGKζ (Q13574 other isoform, or with tags, fused parts or gaps): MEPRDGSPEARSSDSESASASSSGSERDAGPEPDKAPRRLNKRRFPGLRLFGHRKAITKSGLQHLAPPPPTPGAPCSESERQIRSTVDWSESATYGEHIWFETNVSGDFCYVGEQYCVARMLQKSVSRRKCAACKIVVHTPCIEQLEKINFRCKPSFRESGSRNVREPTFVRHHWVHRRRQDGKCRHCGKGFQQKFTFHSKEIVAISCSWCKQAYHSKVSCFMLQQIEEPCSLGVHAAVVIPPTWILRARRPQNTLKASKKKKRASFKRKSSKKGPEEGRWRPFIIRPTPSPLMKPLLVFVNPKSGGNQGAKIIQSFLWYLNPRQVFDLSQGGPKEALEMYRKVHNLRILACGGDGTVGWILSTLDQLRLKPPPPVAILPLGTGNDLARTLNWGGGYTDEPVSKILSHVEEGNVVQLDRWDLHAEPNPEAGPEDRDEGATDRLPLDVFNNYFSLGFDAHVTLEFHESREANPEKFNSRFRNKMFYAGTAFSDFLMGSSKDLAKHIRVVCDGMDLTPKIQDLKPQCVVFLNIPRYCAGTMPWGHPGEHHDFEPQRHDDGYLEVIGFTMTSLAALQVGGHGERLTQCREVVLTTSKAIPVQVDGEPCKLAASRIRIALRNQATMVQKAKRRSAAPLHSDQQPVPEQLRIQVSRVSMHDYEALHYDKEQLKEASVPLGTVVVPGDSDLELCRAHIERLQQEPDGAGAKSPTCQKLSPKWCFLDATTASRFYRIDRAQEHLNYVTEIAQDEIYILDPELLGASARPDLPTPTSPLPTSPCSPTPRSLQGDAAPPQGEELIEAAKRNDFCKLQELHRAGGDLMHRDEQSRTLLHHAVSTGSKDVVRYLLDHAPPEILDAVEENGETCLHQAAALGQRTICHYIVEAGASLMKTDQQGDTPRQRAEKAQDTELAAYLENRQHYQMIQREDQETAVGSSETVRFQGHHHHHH
# T1 sequence (P23743 whole entry, looked up, the tested form may be a part): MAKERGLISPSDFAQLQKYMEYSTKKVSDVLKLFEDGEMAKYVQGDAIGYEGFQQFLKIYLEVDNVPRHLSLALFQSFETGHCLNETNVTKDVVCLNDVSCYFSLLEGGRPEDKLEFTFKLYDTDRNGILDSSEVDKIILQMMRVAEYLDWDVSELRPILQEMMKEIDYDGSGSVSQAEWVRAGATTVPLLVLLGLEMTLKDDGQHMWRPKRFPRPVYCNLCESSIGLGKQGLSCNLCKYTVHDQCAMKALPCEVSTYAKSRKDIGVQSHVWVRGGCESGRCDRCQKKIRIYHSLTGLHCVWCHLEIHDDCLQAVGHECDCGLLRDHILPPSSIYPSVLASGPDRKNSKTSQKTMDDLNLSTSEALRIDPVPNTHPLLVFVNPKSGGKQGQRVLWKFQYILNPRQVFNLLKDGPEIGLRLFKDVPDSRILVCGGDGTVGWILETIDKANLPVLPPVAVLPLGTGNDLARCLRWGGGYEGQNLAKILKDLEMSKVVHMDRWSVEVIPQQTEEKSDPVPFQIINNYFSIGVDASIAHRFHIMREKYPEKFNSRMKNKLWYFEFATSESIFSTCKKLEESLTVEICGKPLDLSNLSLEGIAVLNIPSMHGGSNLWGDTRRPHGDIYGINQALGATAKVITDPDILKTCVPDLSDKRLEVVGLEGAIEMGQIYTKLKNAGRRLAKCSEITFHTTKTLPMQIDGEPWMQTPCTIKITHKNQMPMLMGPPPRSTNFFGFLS
IC50 [1],IC50 [3],IC50 [5],Structure (SMILES),IC50 [2],EC50 [4],EC50 ([4]; Homo sapiens)
82 nM,130 nM,22 nM,"CC[C@H]1CN(C(c2ccc(OC(F)(F)F)cc2)c2cc(C3CC3)on2)[C@H](CC)CN1c1nc(=O)n(C)c2ccc(C#N)nc12 (single isomer, unassigned) [Example 43]",340 nM,120 nM,
11 nM,110 nM,250 nM,"CC[C@@H]1CN(c2nc(=O)n(C)c3ccc(C#N)nc23)[C@@H](C)CN1C(c1ccc(OC(F)(F)F)cc1)c1cc(C2CC2)on1 (single isomer, unassigned) [Example 100]",320 nM,,44 nM
16 nM,86 nM,200 nM,"CC[C@@H]1CN(c2nc(=O)n(C)c3ccc(C#N)nc23)[C@@H](C)CN1C(c1ccc(OC(F)(F)F)cc1)c1ccccn1 (single isomer, unassigned) [Example 94]",220 nM,43 nM,
15 nM,160 nM,97 nM,"CCC(c1ccc(OC(F)(F)F)cc1)N1C[C@H](C)N(c2nc(=O)n(C)c3ccc(C#N)nc23)C[C@H]1CC (single isomer, unassigned) [Example 83]",87 nM,17 nM,
66 nM,91 nM,210 nM,"CCC(c1ccc(OC(F)(F)F)cc1F)N1C[C@H](C)N(c2nc(=O)n(C)c3ccc(C#N)nc23)C[C@H]1CC (single isomer, unassigned) [Example 85]",66 nM,22 nM,
54 nM,2090 nM,3220 nM,"CCC(c1ccc(OC(F)(F)F)cc1)N1C[C@H](C)N(c2nc(=O)n(C)c3ccc(C#N)nc23)C[C@H]1CC (single isomer, unassigned) [Example 84]",780 nM,670 nM,
,11 nM,37 nM,"CC[C@@H]1CN(c2nc(=O)n(C)c3ccc(C#N)nc23)[C@@H](C)CN1C(C)c1ccc(OC)cc1 (single isomer, unassigned) [Example 56]",200 nM,39 nM,
,66 nM,140 nM,"CC[C@@H]1CN(c2nc(=O)n(C)c3ccc(C#N)nc23)[C@@H](C)CN1C(c1ccc(F)cc1)c1cc(C2CC2)on1 (single isomer, unassigned) [Example 101]",250 nM,,100 nM
,36 nM,350 nM,"CC[C@H]1CN(C(C)c2ccc3c(c2)OC(F)(F)O3)[C@H](CC)CN1c1nc(=O)n(C)c2ccc(C#N)nc12 (single isomer, unassigned) [Example 14]",900 nM,94 nM,
,770 nM,610 nM,"COC[C@@H]1CN(c2nc(=O)n(C)c3ccc(C#N)nc23)[C@@H](C)CN1C(C)c1ccc(OC(F)(F)F)cc1 (single isomer, unassigned) [Example 177]",520 nM,1710 nM,
,44 nM,47 nM,"CC(c1ccc(Cl)cc1F)N1C[C@H](C)N(c2nc(=O)n(C)c3ccc(C#N)nc23)C[C@H]1C (single isomer, unassigned) [Example 146]",250 nM,,710 nM
,200 nM,350 nM,"CC(c1ccc(C(F)(F)F)cc1F)N1C[C@H](C)N(c2nc(=O)n(C)c3ccc(C#N)nc23)C[C@H]1C (single isomer, unassigned) [Example 150]",140 nM,,480 nM
,150 nM,230 nM,"CC(c1ccc(C2CC2)cc1F)N1C[C@H](C)N(c2nc(=O)n(C)c3ccc(C#N)nc23)C[C@H]1C (single isomer, unassigned) [Example 168]",220 nM,110 nM,
,47 nM,32 nM,"CC[C@H]1CN(C(c2ccc(F)cc2)c2ccc(C(F)(F)F)cn2)[C@H](CC)CN1c1nc(=O)n(C)c2ccc(C#N)nc12 (single isomer, unassigned) [Example 2]",150 nM,76 nM,
,29 nM,58 nM,"CC[C@H]1CN(C(C)c2ccc(OCC3CC3)cc2)[C@H](CC)CN1c1nc(=O)n(C)c2ccc(C#N)nc12 (single isomer, unassigned) [Example 23]",86 nM,11 nM,
,120 nM,66 nM,"CC[C@H]1CN(C(C)c2ccc(OC(F)(F)F)cc2F)[C@H](CC)CN1c1nc(=O)n(C)c2ccc(C#N)nc12 (single isomer, unassigned) [Example 38]",220 nM,72 nM,
,33 nM,39 nM,"CC[C@@H]1CN(c2nc(=O)n(C)c3ccc(C#N)nc23)[C@@H](C)CN1C(c1ccc(F)cc1)c1ccc(C2CC2)cn1 (single isomer, unassigned) [Example 75]",100 nM,30 nM,
,40 nM,130 nM,"C[C@@H]1CN(c2nc(=O)n(C)c3ccc(C#N)nc23)[C@@H](C)CN1C(c1ccc(F)cc1)c1nc(C2CC2)no1 (single isomer, unassigned) [Example 107]",120 nM,49 nM,
,41 nM,320 nM,"CC[C@H]1CN(C(C)c2ccc(C3CC3)cc2F)[C@H](CC)CN1c1nc(=O)n(C)c2ccc(C#N)nc12 (single isomer, unassigned) [Example 40]",10 nM,21 nM,
,2560 nM,560 nM,"C[C@@H]1CN(c2nc(=O)n(C)c3ccc(C#N)nc23)[C@@H](C)CN1C(c1ccc(F)cc1)c1ccc(F)cc1 [Example 124, 4-((2S,5R)-4-(bis(4-fluorophenyl)methyl)-2,5-dimethylpiperazin-1-yl)-1-methyl-2-oxo-1,2-dihydropyrido[3,2-d]pyrimidine-6-carbonitrile]",270 nM,,500 nM
,350 nM,240 nM,"CC[C@@H]1CN(c2nc(=O)n(C)c3ccc(C#N)nc23)[C@@H](C)CN1Cc1ccc(OC(F)(F)F)cc1 [Example 54, 4-((2S,5R)-5-ethyl-2-methyl-4-(4-(trifluoromethoxy)benzyl)piperazin-1-yl)-1-methyl-2-oxo-1,2-dihydropyrido[3,2-d]pyrimidine-6-carbonitrile]",910 nM,,310 nM
,130 nM,300 nM,"CC[C@@H]1CN(c2nc(=O)n(C)c3ccc(C#N)nc23)[C@@H](C)CN1C(C)c1ccc(OC(F)(F)F)cc1F (single isomer, unassigned) [Example 81]",99 nM,57 nM,
,2690 nM,83 nM,"CC(c1ccc(OC(F)(F)F)cc1)N1C[C@H](C)N(c2nc(=O)n(C)c3ccc(C#N)nc23)C[C@H]1CO (single isomer, unassigned) [Example 183]",270 nM,2330 nM,
,12 nM,120 nM,"CC[C@H]1CN(C(C)c2ccc(C(C)(C)C#N)cc2)[C@H](CC)CN1c1nc(=O)n(C)c2ccc(C#N)nc12 (stereo partly drawn) [Example 196, 4-((2S,5R)-4-(1-(4-(2-cyanopropan-2-yl)phenyl)ethyl)-2,5-diethylpiperazin-1-yl)-1-methyl-2-oxo-1,2-dihydropyrido[3,2-d]pyrimidine-6-carbonitrile]",49 nM,31 nM,
